Article PMC11402846, “Does a postmortem redistribution affect the concentrations of the 7 azaindole-derived synthetic cannabinoid 5F-MDMB-P7AICA in tissues and body fluids following pulmonary administration to pigs?” (Archives of Toxicology, 2024)

What was measured:
[1] = Perimortem and postmortem concentrations in tissues and body fluids after pulmonary administration of 5F-MDMB-P7AICA to pigs (LC-MS/MS); format: in vivo; conditions: pig
Procedure: The experiments were conducted in compliance with the German legislation on protection of animals and the National Institutes of Health Guide for the Care and Use of Laboratory Animals (permission number 32/2018). Six domestic male pigs (Swabian Hall strain; body weight [BW] 40–51.2 kg, 3 months old) were kept with free access to water and standard daily food (OlymPig fattening feed, Raiffeisen, Münster, Germany). One night prior to the experiments, the animals were kept fasting. […] The room temperature was 22 ± 1 °C with a humidity of 55 ± 10%.
As previously described (Doerr et al. [2020]; Schaefer et al. [2019], [2020a]), an ethanolic solution of 5 mg/mL 5F-MDMB-P7AICA was prepared. An aliquot of 1.600–2.048 mL was filled up with ethanol to a total volume of 2 mL, if needed to achieve a concentration of 200 µg per kg BW. The SC was administered inhalatively over 6.5–8 min, using a M-Neb flow + ventilation ultrasonic nebulizer MN-300/7 (Nebutec, Elsenfeld, Germany) in the inspiration-triggered mode.
Animal euthanasia was conducted eight hours after the drug administration using T 61 (embutramide, 0.12 mL/kg BW, Intervet Deutschland GmbH, Unterschleißheim, Germany). Afterwards, the abdominal cavity was opened. Samples of the following organs, tissues and body fluids were collected (PMI 0) and stored at − 20 °C until further analysis: Brain (cerebrum), lungs and liver with no differentiation between the lobes, kidneys, muscle tissue (from the hindleg), adipose tissue (subcutaneous (sc), dorsal, perirenal), bile fluid, duodenum content, urine (only at PMI 0) and PB (V. jugularis) as well as CB.
The abdominal cavity was sutured leaving the organs in situ and the animal bodies were kept at room temperature in a supine position. Analogously, samples were taken again after 24, 48 and 72 h (PMI 1–3), respectively. Yet, PM PB specimens were obtained by sampling the coagulated blood from the V. femoralis or V. brachialis. For this purpose, the whole vessel was sampled and the blood was drawn therefrom using a pipette with a wide lumen.
Specimens were prepared according to a previous published method (Schaefer et al. [2017], [2019], [2020a]) with changes regarding the applied buffers and the amount of acetonitrile. An amount of 2 g of solid tissue (brain, lung, liver, kidney and muscle tissue) was homogenized (1:5 w/w with water), respectively and 1 g of body fluids (bile fluid, duodenum content, and urine) was diluted (1:10 w/w for bile and duodenum content, 1:5 w/w for urine, respectively, with water). The samples were stored at − 20 °C.
To determine the standard addition calibration curves, four 0.5 g aliquots were added to 20 µL of an ethanolic stable-isotope-labeled internal standard solution (SIL-IS, 1 ng/20 µL AB-FUBINACA-d4) and 25 µL of ethanol or an ethanolic solution of the analytes.
Subsequently, the solution was mixed with 500 µL of acetate buffer and 50 µL of β-glucuronidase/arylsulfatase and incubated for 2 h at 60 °C to induce enzymatic hydrolysis of the glucuronidated DBA (phase-II metabolite).
For the following protein precipitation, the samples were mixed with 500 µL of acetonitrile and centrifuged at 3500g for 8 min. The supernatants were transferred to 1 mL phosphate buffer (pH 9) vortexed and centrifuged at 3500g for 8 min again.
Solid phase extraction (SPE) was carried out using Strata C18 end capped cartridges (Phenomenex, Aschaffenburg, Germany), previously conditioned with 2 × 3 mL methanol and 3 mL phosphate buffer. After loading the samples, the columns were washed with 3 mL phosphate buffer, 3 mL acetic acid (0.25 M) and 3 mL deionized water, respectively. 60 μL acetone was added and columns were dried for 5 min using negative pressure (about 33 kPa). Thereafter, the analytes were eluted with a mixture of 1.5 mL methanol-acetone (1:1, v/v) and the eluate was evaporated under a gentle stream of nitrogen at 60 °C. […]

[2] = design: method as in Walle et al. [2023]; conditions: authentic fatal case, comparable survival time after drug intake; ref Walle et al. [2023]; cited from earlier work
P-glycoprotein = test system: P-glycoprotein; design: method as in unpublished data of the authors; conditions: ref unpublished data of the authors; cited from earlier work
[3] = 200 µg/kg BW inhalative, PMI 0 (8 h after administration)
[4] = 200 µg/kg BW inhalative, PMI 1 (24 h after euthanasia, room temperature)
[5] = 200 µg/kg BW inhalative, PMI 2 (48 h after euthanasia, room temperature)
[6] = 200 µg/kg BW inhalative, PMI 3 (72 h after euthanasia, room temperature)

SMILES: COC(=O)C(NC(=O)c1cn(CCCCCF)c2ncccc12)C(C)(C)C (stereo not shown) [5F-MDMB-P7AICA, methyl[2-[1-(5-fluoropentyl)-1H-pyrrolo[2,3-b]pyridin-3-yl]formamido]-3,3-dimethylbutanoate]
- Mean concentration ± SD in CB (central blood) [1, 3]: 0.21 ± 0.10 n = 6 ng/mL
- Mean concentration ± SD in bile fluid [1, 3]: 11 ± 9.9 n = 6 ng/g
- Mean concentration ± SD in brain [1, 3]: 0.33 ± 0.15 n = 6 ng/g
- Mean concentration ± SD in dorsal fat [1, 3]: 30 ± 16 n = 6 ng/g
- Mean concentration ± SD in duodenum content [1, 3]: 2.7 ± 3.1 n = 6 ng/g
- Mean concentration ± SD in kidney [1, 3]: No parent compound could be found and neg
- Mean concentration ± SD in liver [1, 3]: 0.16 ± 0.043 n = 3 ng/g
- Mean concentration ± SD in lung [1, 3]: 0.41 ± 0.26 n = 6 ng/g
- Mean concentration ± SD in muscle [1, 3]: 0.62 ± 0.10 n = 6 ng/g
- Mean concentration ± SD in perirenal fat [1, 3]: 33 ± 31 n = 6 ng/g
- Mean concentration ± SD in s.c. fat [1, 3]: 51 ± 30 n = 6 ng/g
- Mean concentration ± SD in urine [1, 3]: No parent compound could be found and neg
- Mean concentration ± SD in CB (central blood) [1, 4]: 0.25 ± 0.10 n = 5 ng/mL
- Mean concentration ± SD in PB (peripheral blood) [1, 4]: 0.67 ± 0.37 n = 6 ng/mL
- Mean concentration ± SD in bile fluid [1, 4]: 3.5 ± 3.1 n = 6 ng/g
- Mean concentration ± SD in brain [1, 4]: 0.23 ± 0.10 n = 6 ng/g
- Mean concentration ± SD in dorsal fat [1, 4]: 35 ± 26 n = 6 ng/g
- Mean concentration ± SD in duodenum content [1, 4]: 0.44 ± 0.22 n = 6 ng/g
- Mean concentration ± SD in kidney [1, 4]: 0.090–0.10 n = 2 ng/g
- Mean concentration ± SD in liver [1, 4]: 0.21–0.29 n = 2 ng/g
- Mean concentration ± SD in lung [1, 4]: 0.50 ± 0.085 n = 3 ng/g
- Mean concentration ± SD in muscle [1, 4]: 0.77 ± 0.28 n = 6 ng/g
- Mean concentration ± SD in perirenal fat [1, 4]: 30 ± 20 n = 6 ng/g
- Mean concentration ± SD in s.c. fat [1, 4]: 53 ± 43 n = 6 ng/g
- Mean concentration ± SD in CB (central blood) [1, 5]: 0.20 ± 0.090 n = 5 ng/mL
- Mean concentration ± SD in PB (peripheral blood) [1, 5]: 0.58 ± 0.35 n = 6 ng/mL
- Mean concentration ± SD in brain [1, 5]: 0.10 ± 0.065 n = 6 ng/g
- Mean concentration ± SD in dorsal fat [1, 5]: 25 ± 15 n = 6 ng/g
- Mean concentration ± SD in duodenum content [1, 5]: 0.59 ± 0.48 n = 5 ng/g
- Mean concentration ± SD in kidney [1, 5]: 0.17 ± 0.16 n = 5 ng/g
- Mean concentration ± SD in liver [1, 5]: 1.1 ± 2.0 n = 6 ng/g
- Mean concentration ± SD in lung [1, 5]: 0.65 ± 0.37 n = 5 ng/g
- Mean concentration ± SD in muscle [1, 5]: 1.0 ± 0.67 n = 6 ng/g
- Mean concentration ± SD in perirenal fat [1, 5]: 32 ± 35 n = 6 ng/g
- Mean concentration ± SD in s.c. fat [1, 5]: 40 ± 28 n = 6 ng/g
- Mean concentration ± SD in CB (central blood) [1, 6]: 0.24 ± 0.11 n = 5 ng/mL
- Mean concentration ± SD in PB (peripheral blood) [1, 6]: 0.43 ± 0.16 n = 6 ng/mL
- Mean concentration ± SD in brain [1, 6]: 0.16 ± 0.16 n = 4 ng/g
- Mean concentration ± SD in dorsal fat [1, 6]: 33 ± 27 n = 6 ng/g
- Mean concentration ± SD in duodenum content [1, 6]: 0.89 ± 0.71 n = 6 ng/g
- Mean concentration ± SD in kidney [1, 6]: 0.23 ± 0.088 n = 5 ng/g
- Mean concentration ± SD in liver [1, 6]: 0.44 ± 0.18 n = 5 ng/g
- Mean concentration ± SD in lung [1, 6]: 0.71 ± 0.54 n = 5 ng/g
- Mean concentration ± SD in muscle [1, 6]: 2.3 ± 2.1 n = 6 ng/g
- Mean concentration ± SD in perirenal fat [1, 6]: 22 ± 19 n = 6 ng/g
- Mean concentration ± SD in s.c. fat [1, 6]: 35 ± 26 n = 6 ng/g
- Concentration in bile fluid ([1]; 200 µg/kg BW inhalative, PMI 3 (72 h after euthanasia, room temperature), only sampled from 2 pigs): 3.6–7.4 n = 2^2 ng/g
- Mean concentration ± SD in PB (peripheral blood) ([1]; 5F-MDMB-P7AICA 200 µg/kg BW inhalative, PMI 0 (8 h after administration)): 0.57 ± 0.19 n = 6 ng/mL
- Postmortem redistribution (PMR) ([1]; 3 days storage at room temperature): no relevant PMR was observed
- central-to-peripheral blood (C/P) concentration ratio ([1]; PMI 0): lower than 1
- liver-to-peripheral blood (L/P) ratio ([1]; PMI 0): < 5
- C/P concentration ratio ([1]; PMI 1–3): < 1
- L/P concentration ratio ([1]; PMI 1–3): < 5
- Concentration change in liver specimens ([1]; PMI 2 and 3 versus PMI 0, p < 0.05): significant higher
- Concentration change in muscle tissue ([1]; from PMI 0 to PMI 3, p < 0.05): significantly increased
- CB concentration in fatal case [2]: 0.69 ng/mL
- PB concentration in fatal case [2]: 1.2 ng/mL
- substrate of the P-glycoprotein (P-glycoprotein): is a substrate of the P-glycoprotein
